The target in experiment [1] is T1, Histone-lysine N-methyltransferase, H3 lysine-79 specific (Homo sapiens, UniProt Q8TEK3). Kind of experiment: Inhibition of DOT1L (2 to 416 residues) (unknown origin) using biotinylated nucleosomes as substrate preincubated for 30 mins followed by substrate addition in presence of [3H-Me]SAM by scintillation proximity assay. Background: SPA uses beads or plates that emit light when radiolabelled molecules are held near them.
Target sequence in this assay (Q8TEK3 whole entry, the tested form may be a part): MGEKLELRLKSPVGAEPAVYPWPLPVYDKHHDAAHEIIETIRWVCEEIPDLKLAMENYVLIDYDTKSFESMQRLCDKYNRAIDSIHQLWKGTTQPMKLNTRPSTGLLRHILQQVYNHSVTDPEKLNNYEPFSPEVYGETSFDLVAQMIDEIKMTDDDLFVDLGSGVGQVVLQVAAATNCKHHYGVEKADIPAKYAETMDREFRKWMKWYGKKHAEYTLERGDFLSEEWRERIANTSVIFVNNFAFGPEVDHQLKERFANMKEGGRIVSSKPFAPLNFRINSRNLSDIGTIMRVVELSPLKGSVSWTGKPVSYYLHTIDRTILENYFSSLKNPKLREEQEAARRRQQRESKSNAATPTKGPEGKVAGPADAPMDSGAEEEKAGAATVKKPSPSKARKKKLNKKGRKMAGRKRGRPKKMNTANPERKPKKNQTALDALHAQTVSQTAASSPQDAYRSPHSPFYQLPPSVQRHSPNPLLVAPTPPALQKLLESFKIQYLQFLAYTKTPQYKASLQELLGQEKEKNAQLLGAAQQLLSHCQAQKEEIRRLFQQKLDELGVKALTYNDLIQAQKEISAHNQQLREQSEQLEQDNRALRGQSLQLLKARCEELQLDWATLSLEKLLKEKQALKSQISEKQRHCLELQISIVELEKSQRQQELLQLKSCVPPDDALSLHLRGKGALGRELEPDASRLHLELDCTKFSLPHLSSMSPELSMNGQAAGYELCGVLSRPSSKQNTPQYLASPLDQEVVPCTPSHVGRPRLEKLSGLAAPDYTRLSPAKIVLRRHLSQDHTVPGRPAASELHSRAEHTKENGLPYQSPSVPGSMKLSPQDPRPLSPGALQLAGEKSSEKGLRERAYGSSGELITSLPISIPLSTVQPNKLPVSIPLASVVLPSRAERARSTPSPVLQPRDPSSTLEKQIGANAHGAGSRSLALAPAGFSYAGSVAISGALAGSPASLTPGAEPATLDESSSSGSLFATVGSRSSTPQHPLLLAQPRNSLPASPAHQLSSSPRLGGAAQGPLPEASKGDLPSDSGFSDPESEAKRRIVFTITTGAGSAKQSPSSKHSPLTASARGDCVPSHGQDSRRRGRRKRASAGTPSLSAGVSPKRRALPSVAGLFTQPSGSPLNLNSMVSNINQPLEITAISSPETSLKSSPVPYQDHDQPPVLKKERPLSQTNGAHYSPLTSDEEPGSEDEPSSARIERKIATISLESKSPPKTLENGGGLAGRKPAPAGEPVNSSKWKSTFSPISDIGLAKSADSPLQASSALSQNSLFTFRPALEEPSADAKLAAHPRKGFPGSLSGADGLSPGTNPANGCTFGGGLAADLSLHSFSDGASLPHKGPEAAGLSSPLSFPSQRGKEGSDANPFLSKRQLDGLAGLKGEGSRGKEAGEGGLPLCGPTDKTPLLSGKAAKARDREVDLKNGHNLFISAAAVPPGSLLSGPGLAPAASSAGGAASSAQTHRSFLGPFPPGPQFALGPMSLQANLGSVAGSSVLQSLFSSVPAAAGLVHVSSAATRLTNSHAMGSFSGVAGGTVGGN

The target in experiment [2] is T1, Histone-lysine N-methyltransferase, H3 lysine-79 specific. Kind of experiment: Competitive inhibition of DOT1L (2 to 416 residues) (unknown origin) using biotinylated nucleosomes as substrate preincubated for 30 mins followed by substrate addition in presence of [3H-Me]SAM by scintillation proximity assay.
Target sequence in this assay (Q8TEK3 whole entry, the tested form may be a part): as above
The target is the same in experiment [3]. In words: Inhibition of DOT1L in human MOLM13 cells assessed as suppression of HoxA9 gene after 72 hrs by luciferase reporter gene assay. The format is cell-based. For orientation: A reporter such as luciferase makes a cellular process visible.
Target sequence in this assay (Q8TEK3 whole entry, the tested form may be a part): as above
A further experiment concerns MV4-11. Kind of experiment: Antiproliferative activity against human MV4-11 cells harboring MLL-AF4 treated for 6 hrs measured after 8 days by Celltiter-Glo reagent based assay. The experiment is classed as functional, cell-based.
For experiment [4], the target named is T1, Histone-lysine N-methyltransferase, H3 lysine-79 specific. In words: Inhibition of DOT1L in human HeLa cells assessed as reduction in H3K79me2 level after 72 hrs by ELISA. The format is cell-based. Background: An ELISA detects its analyte on a solid surface through an enzyme-linked reagent.
Target sequence in this assay (Q8TEK3 whole entry, the tested form may be a part): as above
The target is the same in experiment [5]. Kind of experiment: Binding affinity to human Avi-tagged biotinylated DOT1L (2 to 416 residues) assessed as target residence time at 100 nM by surface plasmon resonance assay.
Target sequence in this assay (Q8TEK3 whole entry, looked up, the tested form may be a part): as the sequence (Q8TEK3 whole entry, the tested form may be a part) above

Structures are written as SMILES. Where only a bound is given, the exact number is not on record here.

Turning to `CN[C@@H]1CCCN(c2ncnc3[nH]ccc23)C1`, the IC50 in experiment [1] (read-out: IC50) was found to be 141000 nM.
The same measure, in the same setting: the figure for `N[C@@H]1CCCN(c2ncnc3[nH]ccc23)C1` is 240000 nM; for `O=C(CNC(=O)Nc1ccc2ccn(-c3ccccc3Cl)c2c1)NCCCN[C@@H]1CCCN(c2ncnc3[nH]ccc23)C1` it is 4 nM.
In the case of `NC(=O)CNC(=O)Nc1ccc2ccn(-c3ccccc3Cl)c2c1`, the IC50 in experiment [1] (read-out: pIC50 (converted)) is 7940 nM.
With `O=C(CNC(=O)Nc1ccc2ccn(-c3ccccc3Cl)c2c1)NCCCCN[C@@H]1CCCN(c2ncnc3[nH]ccc23)C1`, the IC50 in experiment [1] (read-out: IC50) was 4 nM.
For `Nc1ncnc2c1ncn2[C@@H]1O[C@H](CO)[C@@H](O)[C@H]1O` [ADENOSINE], the IC50 in experiment [1] (read-out: IC50) amounted to 100000 nM.
As usually defined, the Ki is a dissociation constant, usually derived from enzyme kinetics or from competition with a known ligand. As for `Cc1ncccc1-c1c(Cl)sc2ccc(NC(=O)NCC(=O)NCCCN(C)[C@@H]3CCCN(c4ncnc5[nH]ccc45)C3)cc12`, the IC50 is less than 0.1 nM in experiment [1] (read-out: IC50), 17 nM in experiment [3], 5 nM in the experiment on MV4-11 and 3 nM in experiment [4]. In addition, the Ki in experiment [2] is 0.002 nM. In addition, in experiment [5], the TIME was greater than 5 h.
With `CN(CCCNC(=O)CNC(=O)Nc1ccc2ccn(-c3ccccc3Cl)c2c1)[C@@H]1CCCN(c2ncnc3[nH]ccc23)C1`, the IC50 in experiment [1] (read-out: IC50) came out at 0.15 nM.
In the experiment with MV4-11, `CC(C)N(C[C@H]1O[C@@H](n2cnc3c(N)ncnc32)[C@H](O)[C@@H]1O)[C@H]1C[C@@H](CCc2nc3cc(C(C)(C)C)ccc3[nH]2)C1` [PINOMETOSTAT] showed an IC50 of 15 nM. For the same compound, the TIME in experiment [5] was greater than 5 h.
